Reference: PubChem BioAssay AID1963963 (Molecular Pharmacology Branch, DTP, NCI, 2024)

System: 958667-338-R-J2-PDC tumor spheroids viability
Experiment: Anticancer human tumor 958667-338-R-J2-PDC patient-derived colon adenocarcinoma cell line growth inhibition [PI3K]
Conditions: spheroids with HUVEC and MSC; for IC50: curve of first compound; for viability, T/C: stronger effect = lower value
Summary of the method: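 Targeted small molecules plus PI3K inhibitors, half-log dose series from Cmax (default top 10 microM), were applied to heterotypic spheroids of cancer cells with HUVEC and MSCs. Viability indicated growth inhibition.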

[1] = second compound 0.0316 µM, first compound 0.0316 µM
[2] = second compound 0.0316 µM, first compound 0.1 µM
[3] = second compound 0.0316 µM, first compound 0.316 µM
[4] = second compound 0.0316 µM, first compound 1 µM
[5] = second compound 0.0316 µM, first compound 3.16 µM
[6] = second compound 0.0316 µM, first compound 10 µM
[7] = second compound 0.1 µM, first compound 0.0316 µM
[8] = second compound 0.1 µM, first compound 0.1 µM
[9] = second compound 0.1 µM, first compound 0.316 µM
[10] = second compound 0.1 µM, first compound 1 µM
[11] = second compound 0.1 µM, first compound 3.16 µM
[12] = second compound 0.1 µM, first compound 10 µM
[13] = second compound 0.316 µM, first compound 0.0316 µM
[14] = second compound 0.316 µM, first compound 0.1 µM
[15] = second compound 0.316 µM, first compound 0.316 µM
[16] = second compound 0.316 µM, first compound 1 µM
[17] = second compound 0.316 µM, first compound 3.16 µM
[18] = second compound 0.316 µM, first compound 10 µM
[19] = second compound 1 µM, first compound 0.0316 µM
[20] = second compound 1 µM, first compound 0.1 µM
[21] = second compound 1 µM, first compound 0.316 µM
[22] = second compound 1 µM, first compound 1 µM
[23] = second compound 1 µM, first compound 3.16 µM
[24] = second compound 1 µM, first compound 10 µM
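Also: spheroids exposed to compounds for seven days before readout.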

## C[C@@H](NC(=O)c1ncnc(N)c1Cl)c1ncc(C(=O)Nc2cc(C(F)(F)F)c(Cl)cn2)s1 + Cc1nc(NC(=O)N2CCCC2C(N)=O)sc1-c1ccnc(C(C)(C)C(F)(F)F)c1
Second compound 0.0316 µM
  IC50: > 10 µM
Second compound 0.1 µM
  IC50: > 10 µM
Second compound 0.316 µM
  IC50: > 10 µM
Second compound 1 µM
  IC50: > 10 µM
Second compound 3.16 µM
  IC50: > 10 µM
Second compound 10 µM
  IC50: 3.29 µM
[1]
  viability, T/C: 97.2%
[2]
  viability, T/C: 121%
[3]
  viability, T/C: 115%
[4]
  viability, T/C: 88.6%
[5]
  viability, T/C: 87.8%
[6]
  viability, T/C: 89.2%
[7]
  viability, T/C: 119%
[8]
  viability, T/C: 126%
[9]
  viability, T/C: 113%
[10]
  viability, T/C: 108%
[11]
  viability, T/C: 107%
[12]
  viability, T/C: 94.9%
[13]
  viability, T/C: 101%
[14]
  viability, T/C: 85%
[15]
  viability, T/C: 106%
[16]
  viability, T/C: 111%
[17]
  viability, T/C: 94.7%
[18]
  viability, T/C: 90.2%
[19]
  viability, T/C: 87%
[20]
  viability, T/C: 95.8%
[21]
  viability, T/C: 116%
[22]
  viability, T/C: 94.9%
[23]
  viability, T/C: 81.6%
[24]
  viability, T/C: 75.7%
Second compound 3.16 µM, first compound 0.0316 µM
  viability, T/C: 77.9%
Second compound 3.16 µM, first compound 0.1 µM
  viability, T/C: 86.9%
Second compound 3.16 µM, first compound 0.316 µM
  viability, T/C: 82.8%
Second compound 3.16 µM, first compound 1 µM
  viability, T/C: 90.4%
Second compound 3.16 µM, first compound 3.16 µM
  viability, T/C: 89.8%
Second compound 3.16 µM, first compound 10 µM
  viability, T/C: 57.9%
Second compound 10 µM, first compound 0.0316 µM
  viability, T/C: 79.4%
Second compound 10 µM, first compound 0.1 µM
  viability, T/C: 82.5%
Second compound 10 µM, first compound 0.316 µM
  viability, T/C: 76.6%
Second compound 10 µM, first compound 1 µM
  viability, T/C: 71.3%
Second compound 10 µM, first compound 3.16 µM
  viability, T/C: 50.7%
Second compound 10 µM, first compound 10 µM
  viability, T/C: 28.2%

## CCCS(=O)(=O)Nc1ccc(F)c(C(=O)c2c[nH]c3ncc(-c4ccc(Cl)cc4)cc23)c1F + COc1c(OCCCN2CCOCC2)ccc2c3n(c(=NC(=O)c4cnc(N)nc4)nc12)CCN3
Second compound 0.00316 µM
  IC50: 5.88 µM
Second compound 0.01 µM
  IC50: 6.02 µM
Second compound 0.0316 µM
  IC50: 4.97 µM
Second compound 0.1 µM
  IC50: 4.08 µM
Second compound 0.316 µM
  IC50: < 0.0316 µM
Second compound 1 µM
  IC50: < 0.0316 µM
Second compound 0.00316 µM, first compound 0.0316 µM
  viability, T/C: 126%
Second compound 0.00316 µM, first compound 0.1 µM
  viability, T/C: 93.4%
Second compound 0.00316 µM, first compound 0.316 µM
  viability, T/C: 94.4%
Second compound 0.00316 µM, first compound 1 µM
  viability, T/C: 109%
Second compound 0.00316 µM, first compound 3.16 µM
  viability, T/C: 99.5%
Second compound 0.00316 µM, first compound 10 µM
  viability, T/C: 7.46%
Second compound 0.01 µM, first compound 0.0316 µM
  viability, T/C: 89.1%
Second compound 0.01 µM, first compound 0.1 µM
  viability, T/C: 93.7%
Second compound 0.01 µM, first compound 0.316 µM
  viability, T/C: 111%
Second compound 0.01 µM, first compound 1 µM
  viability, T/C: 84.8%
Second compound 0.01 µM, first compound 3.16 µM
  viability, T/C: 110%
Second compound 0.01 µM, first compound 10 µM
  viability, T/C: 12.4%
[1]
  viability, T/C: 63%
[2]
  viability, T/C: 67.5%
[3]
  viability, T/C: 74.5%
[4]
  viability, T/C: 74.5%
[5]
  viability, T/C: 103%
[6]
  viability, T/C: 8.73%
[7]
  viability, T/C: 67.4%
[8]
  viability, T/C: 52.2%
[9]
  viability, T/C: 61.7%
[10]
  viability, T/C: 61.8%
[11]
  viability, T/C: 63.2%
[12]
  viability, T/C: 10.3%
[13]
  viability, T/C: 31.6%
[14]
  viability, T/C: 49.6%
[15]
  viability, T/C: 38.3%
[16]
  viability, T/C: 32.2%
[17]
  viability, T/C: 37.5%
[18]
  viability, T/C: 6.35%
[19]
  viability, T/C: 19%
[20]
  viability, T/C: 23.5%
[21]
  viability, T/C: 16.7%
[22]
  viability, T/C: 20.8%
[23]
  viability, T/C: 19.2%
[24]
  viability, T/C: 5.1%
